Results on three molecules are retold here after patent US20240190857A1, “METHODS FOR MANUFACTURE OF SMALL MOLECULE ACTIVATORS OF TIE-2” (EyePoint Pharmaceuticals, Inc., priority 2020, published 2024).

This data set can be described thus: Solubility of compounds in various solvents. The format is physicochemical. The following applies: for solubility: organic solvent or mixture, read-out: Observation: solubility / saturation concentration (S.C.).

Converted amounts (≈) assume the structure as drawn. Read-outs that look alike come from different tables or passages of the source.

For the molecule `CN(C)C.COC(=O)N[C@@H](Cc1ccccc1)C(=O)N[C@@H](Cc1ccc(NS(=O)(=O)O)cc1)c1csc(-c2cccs2)n1` [Compound F-5, trimethylammonium (4-((S)-2-((S)-2-((methoxycarbonyl)amino)-3-phenylpropanamido)-2-(2-(thiophen-2-yl)thiazol-4-yl)ethyl)phenyl)sulfamate], the “Observation: solubility / saturation concentration (S.C.)” value (MeOH, 17-22° C.) is given as “Soluble at 93 mg/mL”.
For `COC(=O)N[C@@H](Cc1ccccc1)C(=O)N[C@@H](Cc1ccc([N+](=O)[O-])cc1)c1csc(-c2cccs2)n1` [Compound F-3, methyl ((S)-1-(((S)-2-(4-nitrophenyl)-1-(2-(thiophen-2-yl)thiazol-4-yl)ethyl)amino)-1-oxo-3-phenylpropan-2-yl)carbamate], the solubility was not below 100 mg/mL (17 °C, DMF, 17-22° C.); approximately 5 mg/mL (≈ 9.32 mM) (17 °C, THF, 17-22° C.); less than 5 mg/mL (17 °C, Toluene, 17-22° C.); approximately 100 mg/mL (≈ 186 mM) (50 °C, THF, 50-55° C.); approximately 15 mg/mL (≈ 28 mM) (60 °C, 2-MeTHF, 60-65° C.).
Regarding `COC(=O)N[C@@H](Cc1ccccc1)C(=O)N[C@@H](Cc1ccc(NS(=O)(=O)[O-])cc1)c1csc(-c2cccs2)n1.[Na+]` [Compound 1, sodium (4-((S)-2-((S)-2-((methoxycarbonyl)amino)-3-phenylpropanamido)-2-(2-(thiophen-2-yl)thiazol-4-yl)ethyl)phenyl)sulfamate], the solubility is less than 60 mg/mL (17 °C, Acetone, 17-22° C.); not below 53 mg/mL (17 °C, Acetone:H2O (80:20), 17-22° C.); not below 106 mg/mL (17 °C, DMSO, 17-22° C.); approximately 30 mg/mL (17 °C, MeOH, 17-22° C.); less than 40 mg/mL (17 °C, THF, 17-22° C.).
